The subject of assay [1] is Jurkat, human leukemic T cell line. Kind of assay: Anti-proliferation MTT / CCK-8 assay. Format: cell-based. The conditions noted are these: 72 h; for IC50: Homo sapiens, Jurkat. The method, then: These cells were purchased from the National Collection of Authenticated Cell Cultures (Shanghai, China).
(§1) The concentration of the cell suspension was adjusted to the appropriate concentration with fresh medium (the number of cells was about 30–40% of the bottom area of the well plate). 150 μL (about 1 × 10^4 cells) of prepared cell suspension containing different concentrations of NBU-2 were added to a 96-microtiter plate, and 3 replicate wells were set up for each concentration. If the cells were adherent, the cells were first allowed to grow overnight in 96 microtiter plates until the cells were adherent, and then the old medium was replaced with the drug-containing medium. The plates were incubated in a 5% CO2 cell incubator at 37 °C for 72 h. Then, 15 μL of MTT solution was added to each well, 100 μL of 10% SDS solution (pH = 2) was added after 4 h, and the plate was incubated at 37 °C with 5% CO2 overnight to fully dissolve the crystals.
(§2) The cells (about 1 × 10^4 cells) were treated with different concentrations of NBU-2 and DMSO control for different times (24 h, 48 h, 72 h), with 3 replicate wells for each concentration. Incubate at 37 °C in a 5% CO2 cell culture incubator. After a predetermined time, 10 μL of CCK-8 was added to each well and incubated for 2 h. The absorbance was measured at the excitation wavelength of 450 nm.
(Formazan colour is commonly taken as a measure of viable cells.)

The test system of assay [2] is PC12, pheochromocytoma of the rat adrenal medulla. Kind of assay: Anti-proliferation MTT / CCK-8 assay. Format: cell-based. The note with it: PC-12, 72 h.
Description: (§3) K562, human erythroleukemia line; HL-60, human leukemic cell line; Jurkat, human leukemic T cell line; CCRF-CEM, human leukemic lymphoblasts; U937, human histiocytic lymphoma; HCT-116, human colorectal cancer cell line; A549, human lung cancer cell line; Hep G2, human hepatoma cell lines; MDA-MB-231, MCF-7, human breast cancer cell line; 4T1, mouse breast cancer cell line; PC12, pheochromocytoma of the rat adrenal medulla; HUVEC, human umbilical vein endothelial cells. These cells were purchased from the National Collection of Authenticated Cell Cultures (Shanghai, China).
as §1, with “crystals. Finally, the absorbance value of each well was measured at 570 and 655 nm.” for “crystals.”
as §2

In assay [3] the test system is U937, human histiocytic lymphoma. Kind of assay: Anti-proliferation MTT / CCK-8 assay. It counts as cell-based.
Description: as §3
as §1, with “crystals. Finally, the absorbance value of each well was measured at 570 and 655 nm.” for “crystals.”
as §2

The test system of assay [4] is Jurkat cells. The assay is described as follows: Cell cycle analysis (propidium iodide, flow cytometry). It counts as cell-based, human. The note with it: 48 h. Here is the method: Jurkat cells were cultured to the appropriate density. Jurkat cells were stimulated with three concentration gradients of 0.2 µM, 1 µM, and 5 µM of NBU-2, and DMSO (as a control) for 48 h. Cells were collected, fixed overnight using pre-cooled 70% ethanol, and then stained according to the instructions. Subsequently, flow cytometry was used to detect using flow cytometry.
In general terms: A flow cytometer gives signals particle by particle.

For assay [5], the system named is Jurkat cells. Kind of assay: Reactive oxygen species assay (DCFH-DA probe). The note with it: 0.2, 1, 5 µM, 48 h; concentration-dependent. Format: cell-based, human. The method, then:
Cells were treated with 0.2 µM, 1 µM, 5 µM, and DMSO for 48 h. Then the probes were loaded using serum-free medium and incubated for 20 min at 37 °C in a cell incubator. Next, the cells were collected.

The target in the next assay is T1, HDAC6 (Homo sapiens, UniProt Q9UBN7).
T1 sequence (Q9UBN7 1-1215): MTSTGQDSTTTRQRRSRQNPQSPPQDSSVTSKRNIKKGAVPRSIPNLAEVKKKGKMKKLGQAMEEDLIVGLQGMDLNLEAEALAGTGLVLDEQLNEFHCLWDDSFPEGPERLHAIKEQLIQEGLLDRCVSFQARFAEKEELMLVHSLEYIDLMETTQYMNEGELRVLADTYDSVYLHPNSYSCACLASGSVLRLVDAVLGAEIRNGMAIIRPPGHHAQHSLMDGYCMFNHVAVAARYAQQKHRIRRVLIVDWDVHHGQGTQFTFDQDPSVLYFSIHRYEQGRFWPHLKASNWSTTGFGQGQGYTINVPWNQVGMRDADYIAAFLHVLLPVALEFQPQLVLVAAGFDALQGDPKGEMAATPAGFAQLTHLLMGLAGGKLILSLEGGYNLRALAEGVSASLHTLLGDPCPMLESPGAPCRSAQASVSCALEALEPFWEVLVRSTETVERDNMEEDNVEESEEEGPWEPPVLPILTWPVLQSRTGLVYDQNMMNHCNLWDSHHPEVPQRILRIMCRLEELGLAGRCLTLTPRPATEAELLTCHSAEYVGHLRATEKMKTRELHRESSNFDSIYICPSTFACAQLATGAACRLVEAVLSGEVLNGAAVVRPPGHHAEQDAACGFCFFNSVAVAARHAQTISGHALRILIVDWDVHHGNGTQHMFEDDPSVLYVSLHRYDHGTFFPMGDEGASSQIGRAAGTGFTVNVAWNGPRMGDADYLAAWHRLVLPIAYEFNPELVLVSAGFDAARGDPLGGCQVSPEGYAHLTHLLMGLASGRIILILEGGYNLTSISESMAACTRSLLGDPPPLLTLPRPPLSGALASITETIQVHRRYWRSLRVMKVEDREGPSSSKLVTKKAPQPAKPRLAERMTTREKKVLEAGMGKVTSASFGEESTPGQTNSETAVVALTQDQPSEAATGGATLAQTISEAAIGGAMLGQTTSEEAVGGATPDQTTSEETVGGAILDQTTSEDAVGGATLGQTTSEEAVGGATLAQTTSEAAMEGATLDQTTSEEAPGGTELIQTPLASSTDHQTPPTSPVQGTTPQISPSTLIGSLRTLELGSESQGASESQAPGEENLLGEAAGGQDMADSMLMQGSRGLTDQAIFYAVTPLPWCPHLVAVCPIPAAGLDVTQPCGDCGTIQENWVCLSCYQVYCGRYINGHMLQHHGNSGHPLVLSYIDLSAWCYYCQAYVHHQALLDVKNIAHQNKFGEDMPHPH
The assay is described as follows: In vitro HDAC enzymatic inhibition assay (HDAC kit, fluorescence).

The values below come from publication PMC12651750 (Cells, 2025).

Read-outs that look alike come from different tables or passages of the source. A value given as a limit tells only on which side of the number the result lay.

Description for HDAC6: Enzymatic assays were performed by Shanghai ChemPartner according to the HDAC kit protocol. […] Fluorescence was recorded at 355 nm excitation and 460 nm emission on a Synergy MX reader (PerkinElmer Life Sciences, Boston, MA, USA). IC50 values were derived from dose–response curves.

Regarding `Cc1cccc2c(=O)c3c(NCCCCCC(=O)NO)ccc([N+](=O)[O-])c3[nH]c12` [NBU-2, N-hydroxy-6-((5-methyl-4-nitro-9-oxo-9,10-dihydroacridin-1-yl)amino)hexanamide], the “Inhibitory effect on Jurkat cells over time” value in assay [1] (CCK-8, 24 h, 48 h, various concentrations) was “concentration and time-dependent”. Also, the IC50 is 860 nM in assay [1] (read-out: IC50 against Jurkat cells); 860 ± 130 nM in assay [1] (read-out: IC50 proliferation Jurkat, heading: IC50 proliferation Jurkat, mean ± SEM of three independent assays); more than 50 nM in assay [2]; less than 5000 nM in assay [3] (U-937, 72 h, read-out: IC50 against U937); 2340 ± 1080 nM in assay [3] (U-937, read-out: IC50 proliferation U937, heading: IC50 proliferation U937, 72 h, mean ± SEM of three independent assays); 7.34 ± 0.6 nM at HDAC6. Also, the “Percentage of cells in G0/G1 phase (2N)” value with Jurkat cells [4] (0.2 μM) came out at 35.3%; in the assay with Jurkat cells [4] (1 μM), 40.4%; in the assay with Jurkat cells [4] (5 μM), 57.9%. Also, in the assay on Jurkat cells [5], the “Levels of reactive oxygen species relative to DMSO” value is “significantly increased”.
